Results reported in patent US7019000B1, “Method of treating a disease condition caused or exacerbated by an HPV” (Institute of Molecular & Cell Biology, priority 1998, dated 2006).

What was measured:
[1] = tested on: PARP cleavage in HeLa cells; assay: Western blot detection of PARP cleavage, HeLa; assay type: cell-based, human; conditions: 100 μM, one day
Protocol: 10^6 cells were plated on 10 cm petri-dishes with 10 ml medium and after attachment overnight, treated with 100 μM C16 or 0.5% DMSO for one day. At the time of cell harvest most C16-treated cells were still attached to the plate. Cells were harvested using a rubber policeman and lysed in 10 mM Hepes buffer, pH 7.2, 150 mM NaCl, 0.2% Nonidet-P40 (NP40) and 1 mM PMSF, followed by centrifugation. 20 μg of protein was loaded onto a 12% SDS-polyacrylamide gel, transferred to a nitrocellulose membrane and the membrane blocked with 5% nonfat dry milk in 20 mM Tris-Cl, pH 7.6, 150 mM NaCl, 0.05% Tween-20 overnight at 4° C. The membrane was then probed with primary antibodies against p53 (Santa Cruz Biotechnology, Santa Cruz, Calif.), β-actin (Sigma, St. Louis, Mo.) or PARP (C210, Centre de Research du Chul, Quebec, Canada) and followed by incubation with horseradish peroxidase-conjugated secondary antibody (Pierce, Rockford, Ill.). Finally, the blot was treated with an enhanced chemiluminescent detection substrate (SuperSignal, Pierce) and autoradiographed.
Increases in P53 expression are known to be associated with programmed cell death (apoptosis) (29), therefore PARP cleavage, a hallmark of apoptosis was examined in C16 treated cells.

[2] = tested on: HPV containing cell lines as HeLa, SiHa and Caski, compared to HPV-negative cell lines MCF7, HEPG2, (HaCat, HT3, 444); assay: Cell viability (WST1 assay), panel of HPV-positive and HPV-negative cell lines; assay type: cell-based, human
Protocol: Zinc finger proteins are required for maintenance of cell viability. Preferably, the compounds for use in the present invention are specific in their ability to affect the viability of MPV containing cells, with little or no cytotoxic effects on the cellular functioning of healthy non-MPV containing cells. The viability of MPV-infected cells (and non infected cells) in the presence of compounds of Formulae (I) or (II) can be measured by incubating with the tetrazolium salt WST1 (Roche Molecular Biochemicals, Manneheim Germany) and measuring the absorption readings thereof (WST1 assay).
All cell lines were obtained from the American Type Culture Collection (Manassas, Va.) unless otherwise noted. SiHa (human cervical epithelial tumor line, HPV16-positive), CaSki (human cervical epithelial tumor line, HPV16-positive), HaCat (immortalized human skin epithelial cell line, HPV-negative), HeLa (human cervical epithelial tumor line, HPV18-positive), 444 (hybrid of HeLa and fibroblast, HPV18-positive) obtained from Eric Stanbridge (Universitv of California, Irvine), MCF7 (human mammary epithelial tumor cell line, HPV-negative), HT3 (human cervical epithelial tumor cell line, HPV-negative) was obtained from the German Cancer Research Institute/DKFZ-Heidelberg, and HepG2, (human liver epithelial tumor cell line, HPV-negative), were grown in Dulbecco's modified Eagle medium (DMEM) supplemented with 10% fetal calf serum, 100 U penicillin and 1000 U streptomycin. Cells were allowed to attach to the surface of microwell dishes overnight and subsequently, incubated with medium containing the zinc ejecting compounds at the concentrations (10–100 μM). Viability of the cells was scored by measuring the absorption of the tetrazolium salt WST1 (Roche Molecular Biochemicals, Mannheim, Germany) in an Elisa-plate reader (Tecan, Salzburg, Austria) at a wavelength of 450 nm and a reference wavelength of 630 nm.
A total of 10 000 cells per well were plated on 24 well plates, after attachment overnight, they were treated 3 times in 3 days with C16 at 10 μM and 50 μM. The activity of C16 was also compared with that of C4 (azodicarbonamide) which causes ejection of zinc from HIV-1 NCp7 and is currently used in clinical trials for the treatment of AIDS.

[3] = target: T1, HPV-16-E6 (recombinant GST-E6 protein) (Human papillomavirus type 16, UniProt P03126); assay: biochemical; assay type: biochemical
T1 construct: The full length HPV16 E6 gene was amplified via polymerase chain reaction and cloned in the vector pGeX4T2; made in house; host or cells: E. coli strain AB1899
T1 sequence (P03126 whole entry): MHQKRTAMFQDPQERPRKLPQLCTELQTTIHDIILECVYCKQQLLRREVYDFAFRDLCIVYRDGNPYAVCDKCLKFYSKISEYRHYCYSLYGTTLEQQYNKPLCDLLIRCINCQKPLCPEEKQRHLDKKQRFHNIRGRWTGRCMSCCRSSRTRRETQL
Description: Where the chelated metal is zinc, zinc release can be measured as an increase in the fluorescence of the zinc-selective fluorophore TSQ (N-(6-methoxy-8-quinolyl)-p-toluenesulfonamide) (18) in the presence of the protein and the active compound (TSQ assay).
In such an assay, the increase in fluorescence measured can be described as a percentage of the increase in fluorescence observed for a positive control compound which provides 100% zinc release. A suitable positive control compound is H2O2. Preferred compounds which may be useful in the present invention are those which release at least 30% of the chelated zinc as measured by the TSQ assay. Particularly preferred compounds for use in the present invention are those which release at least 40% of the chelated zinc, more preferably at least 50%.
In earlier studies, reduced glutathione (GSH) was required to elute recombinant glutathione sulfhydryl transferase E6 (recombinant (GST-E6)) protein during the purification process. However, the reducing activity of the GSH sulfhydryl groups protected GST-E6 protein from the chemical attack by agents, such as the disulphide based organic compounds of Formula (I) and (II). […] Individual assays were done in the presence of 9 μg GST-E6 protein, corresponding to a concentration of 1 μM GST-E6 protein and 2 μM bound zinc, assuming the presence of two Zn ions per protein.
Release of zinc from HPV-16-E6 was monitored by the change in fluorescence of the zinc-selective fluorophore TSQ (N-6-methoxy-8-quinolyl)-p-toluenesulfonamide), (Molecular Probes, Eugene, Oreg.) by modification of published procedures (25, 26, 27). In a total reaction volume of 200 μl, 9 μg (1 μM) recombinant GST-E6 protein (corresponding to a concentration of 1 μM), bound to glutathione-sepharose beads, were incubated with 10 μM of each compound or 0.6% (170 mM) H2O2 in TSQ-assay buffer (10 mM sodium phosphate buffer pH7.0, 10% glycerol) for 2 hours at room temperature (200 μl total volume in 96-well plates). Immediately after addition of 100 μM TSQ, the increase in fluorescence was measured on a SLT Fluostar (355 nm excitation filter and 460 nm emission filter, Tecan, Salzburg).
Values given are % values of Zinc release. The relative fluorescence units (RFU) were normalized to the amount of zinc released by H2O2 (regarded as 100%). The concentration of compound used was 10 μM for C27–C35, 13 μM for C37–C83, H2O2 was used at 0.3% for C27–C35 and 0.2% for C37–C83.

C1CN(SSN2CCOCC2)CCO1 [Compound C16]
PARP cleavage [1]: PARP cleavage was observed
effective concentration in cell viability assays [2]: 50 µM
WST1 ([2]; 50 μM in cell culture): +
WST1-spec ([2]; 50 μM, HPV containing vs HPV-negative cell lines): +
zinc release in original TSQ assays ([3]; GSH present at 5–10 mM): capable of releasing zinc
activation at 10 µM ([3]; read-out: TSQ % (% values of Zinc release)): 63.2%
